Entries after “also recorded” stand apart in the source; their conditions may differ.
What was measured:
[1] = tested on: MDA-MB231 cells; test: EGF-stimulated lamellipodial (membrane) protrusion in MDA-MB231 cells; type: cell-based; details: for lamellipodial protrusion 8 min post-stimulation: 0.5 nM EGF
Protocol: (§1) FIG. 2A-2G. Inhibition of PTP1b phenocopies expression of Mena^INV. (A) MDA-MB231 cells were serum starved for 4 h with addition of 10 μM PTP1b inhibitor (EMD Calbiochem) for the time indicated. Cells were then stimulated with 0.5 nM EGF and lamellipodial protrusion was measured 8 min post-stimulation. […] (G) Inhibition of PTP1b in vivo shifts the sensitivity of GFP-Control MTLn3 xenografted cells to 5 nM (a 5× increase in sensitivity). *p<0.05 and **p<0.01 by ANOVA and Tukey post-test.
FIG. 8A-8D: The activity of SHIP2 is not required for early stages of Mena^INV-induced lamellipodial protrusion. MDA-MB231 (A,B) and MTLn3 (C,D) cells were incubated for 4 h with 10 μM AS1949490 in serum-free medium. Cells were stimulated with 0.25 nM (A,B) or 0.5 nM (C,D) EGF and membrane protrusion was recorded 8 min. […]
In contrast, inhibition of PTP1b increased lamellipodial protrusion in MDA-MB231-GFP control cells in a time dependent manner in response to 0.5 nM EGF.

[2] = tested on: MTLn3 cells; test: EGF-stimulated lamellipodial (membrane) protrusion in MTLn3 cells; type: cell-based
Protocol: as §1
FIG. 8A-8D: The activity of SHIP2 is not required for early stages of Mena^INV-induced lamellipodial protrusion. MDA-MB231 (A,B) and MTLn3 (C,D) cells were incubated for 4 h with 10 μM AS1949490 in serum-free medium. Cells were stimulated with 0.25 nM (A,B) or 0.5 nM (C,D) EGF and membrane protrusion was recorded 8 min.
What could account for the phenotypes associated with inclusion of the INV exon of Mena, that include: increased activation of EGFR and downstream EGFR-mediated, motility-specific signaling pathways, increased cell invasion, and decreased efficacy of tyrosine kinase inhibition? One route to aberrant signal amplification is dysregulation of control nodes within the protein network, such as phosphatases, that could lead to prolonged or amplified phosphorylation states. Identification of potential Mena and Mena^INV interacting partners that might affect phosphatase activity can shed light on this. Attempts were made at identification of Mena isoforms-specific interacting partners via mass spectrometric analysis. Several unsuccessful attempts to purify Mena interacting partners through a co-immunprecipitation and the mass spectrometric approach resulted. A bioinformatics screening approach was then used. A list of 38 human phosphatases was queried for potential Ena/VASP interaction motifs, with the hypothesis that an interaction between Mena^INV and a phosphatase important for attenuating growth factor responses could lead to increased signaling upon growth factor stimulation. […]

[3] = tested on: cells expressing MenaINV; test: Membrane protrusion after 1 nM EGF with increasing doses of Erlotinib; type: cell-based
Protocol: FIG. 6A-6D: Cells expressing MenaINV are resistant to EGFR targeted kinase inhibitors. [A] […] Data was combined to generate novel hypothesis regarding clinically-relevant treatment regimes for invasive breast cancer. […]. Membrane protrusion was quantified 8 min post-EGF/drug addition. *p<0.05, **p<0.01, ***p<0.001. […]. Cells were serum starved and then stimulated with EGF and drug for 3 min. Cells were lysed and the level of EGFR-pY1173 was determined by semi-quantitative Western Blot.
. To test this hypothesis, serum-starved cells were treated with 1.0 nM EGF and increasing doses of DMSO (carrier control) or Erlotinib and measured EGFR phosphorylation at 3 min post-stimulation (FIG. 6B). […]. […] Further, electron microscopy was performed using ultra-small gold particles to examine receptor distribution along the cell membrane to determine if increased clustering of the receptor might affect drug binding or signal propagation. However, no significant difference was found in receptor clustering in the analysis (FIG. 7).

[4] = tested on: mammary carcinoma cells; test: In vivo invasion of mammary carcinoma cells under Erlotinib
[5] = tested on: EGFR Y1173 phosphorylation in MDA-MB231 cells; test: EGFR Y1173 phosphorylation on PTP1b inhibition, semi-quantitative Western blotting; type: cell-based; details: 0.25 nM EGF, 10 μM, 30 min preincubation
Protocol: (§2) FIG. 9A-9C: PTP1b inhibition increases EGFR pathway activation. MDA-MB231 cells expressing GFP-control or GFPMena^INV were serum starved for 4 h and stimulated with 0.25 nM EGF in the presence or absence of 10 μM PTP1b (30 min preincubation). Phosphorylation of EGFR on Y1173 was measured using semi-quantitative Western blotting (A, B) of quadruplicate lysates. […] MTLn3 cells were transiently transfected with a mCherry-tagged PHdomain biosensor targeting PI(4,5)P2, starved in L15 media, pre-incubated with 10 μM PTP1bi and then stimulated with 0.5 nM EGF.

[6] = tested on: MDA-MB231 cells; test: In vitro invasion into collagen I gels; type: cell-based; details: 0.25 or 0.5 nM EGF
[7] = tested on: xenograft tumors of MTLn3 cells; test: In vivo invasion assay (needle collection from xenograft tumors); set-up: species or system mouse
Protocol: An in vivo invasion assay was employed to determine the effect of decreased PTP1b activity on tumor cell chemotaxis. To mimic the in vitro invasion experiments, 50 μM PTP1b inhibitor was added to needles with 10% matrigel and varying concentrations of EGF, the needles inserted into xenograft tumors of MTLn3 cells expressing either GFP or GFP-Mena^INV and cells allowed to crawl into the needle during a 4 h period. Similar to the results obtained in vitro, addition of PTP1b inhibitor to needles used to collect cells had no effect on the number of cells ectopically expressing Mena^INV collected (FIG. 2G). However, PTP1b inhibition increased the sensitivity of control cells 5-fold, decreasing the concentration of EGF required for chemotaxis into the needles from 25 nM to 5 nM. In this assay the discrepancy between expression of Mena^INV and inhibition of PTP1b may be due to the time lag required for inhibitor efficacy.
However, viability of the mouse under anesthesia precludes collection of cells for longer periods than 4 h, therefore this effect is difficult to quantify.

[8] = tested on: MTLn3 cells; test: PI(4,5)P2 hydrolysis, mCherry-tagged PH-domain biosensor (PLCγ activity); type: cell-based; details: GFP-control MTLn3, 10 μM pre-incubation, 0.5 nM EGF, 3 min post-EGF, versus DMSO
Protocol: as §2

[9] = tested on: MET; test: HGF-stimulated protrusion assay with MET inhibitor; type: cell-based; details: +5 ng/ml HGF
Protocol: FIG. 11: Cell protrusion assays were performed in which starved carcinoma cells expressing GFP, GFP-Mena or GFP-Mena^INV were stimulated with different concentrations of hepatocyte growth factor (HGF) (analogously as done with EGF stimulation of EGFR) followed by a measurement of cell protrusion several minutes later. The HGF concentrations (x-axis) are nM and the Y-axis is increase in cell size (a reflection of protrusion) compared to unstimulated cells.

[10] = tested on: MET; test: MET kinase activity in cells with MET inhibitor; type: cell-based

C[C@H](NC(=O)c1sccc1OCc1ccc(Cl)cc1)c1ccccc1 [AS1949490]
membrane protrusion at 8 min post-EGF stimulation ([1]; MDA-MB231-GFP-Mena^INV, 10 μM for 4 h, 0.25 nM EGF): reduced the protrusion response; also recorded: decreased membrane protrusion to GFPcontrol levels | initial protrusion response (kinetics) ([1]; MDA-MB231-GFP-Mena^INV, 10 μM, 0.25 nM EGF, up to 3 min post-stimulation): still demonstrated the fast initial protrusion response | membrane protrusion at 8 min post-EGF stimulation ([2]; MTLn3-GFP-Mena^INV, 10 μM for 4 h, 0.5 nM EGF): reduced the protrusion response; also recorded: decreased membrane protrusion to GFPcontrol levels | initial protrusion response (kinetics) ([2]; MTLn3-GFP-Mena^INV, 10 μM, 0.5 nM EGF, up to 3 min post-stimulation): still demonstrated the fast initial protrusion response

C#Cc1cccc(Nc2ncnc3cc(OCCOC)c(OCCOC)cc23)c1 [Erlotinib]
drug required to decrease lamellipodial protrusion, Mena^INV cells compared to control GFP or Mena cells ([3]; 1 nM EGF, 8 min post-EGF/drug addition): ten-fold more Erlotinib was required; also recorded: Significantly higher doses of Erlotinib (Tarceva) are required | efficacy after normalizing protrusion to the no-drug response of each cell line ([3]; across cell lines (FIG. 6D)): roughly equivalent; also recorded: a common response across cell lines | in vivo invasion ([4]; GFP-expressing mammary carcinoma cells): abrogates in vivo invasion | in vivo invasion ([4]; cells that express Mena^INV): does not fully block invasion

CCc1oc2cc(S(=O)(=O)Nc3ccc(S(=O)(=O)Nc4nccs4)cc3)ccc2c1C(=O)c1cc(Br)c(O)c(Br)c1 [PTP1b inhibitor]
lamellipodial protrusion 8 min post-stimulation ([1]; GFP-control cells, 10 μM, 30 min pre-incubation): complete phenocopy of Mena^INV-dependent responses; also recorded: significant increase in membrane protrusion | kinetics of protrusion ([1]; MDA-MB231-GFP control cells, 30 min pre-incubation): increased the kinetics of protrusion | membrane protrusion ([1]; MDA-MB231-GFP-Mena and GFP control cells, 0.25 nM EGF): increased membrane protrusion; also recorded: protrusion was increased | kinetics of protrusion ([1]; MDA-MB231-GFP-Mena^INV cells): without affecting the dynamics | membrane protrusion ([1]; MDA-MB231-GFP-Mena^INV cells, 0.25 nM EGF): no further increase was measured | membrane protrusion ([1]; cells expressing Mena^INV, 0.125 nM EGF (data not shown)): does not increase membrane protrusion | lamellipodial protrusion 8 min post-stimulation ([1]; cells expressing Mena^INV, 10 μM, 30 min pre-incubation): had no effect | membrane protrusion (magnitude and kinetics) ([2]; unmodified MTLn3 cells, EGF (0.5 nM, 5 nM elsewhere in the source)): increased the magnitude and kinetics of membrane protrusion; also recorded: significantly enhanced | EGFR Y1173 phosphorylation ([5]; GFP control cells): increases EGFR phosphorylation on Y1173; also recorded: increased EGFR Y1173 phosphorylation | EGFR Y1173 phosphorylation ([5]; GFP control cells, listed as PTP1bi): increased EGFR Y1173 phosphorylation | EGFR Y1173 phosphorylation ([5]; cells expressing Mena^INV): no additional affect | invasion into collagen I gels ([6]; MDA-MB231-GFP and -GFP-Mena): increased | invasion into collagen I gels ([6]; cells expressing Mena^INV): no significant effect | increase in sensitivity of control cells to EGF in vivo ([7]; GFP-control MTLn3 xenograft, 50 μM inhibitor in needles, 4 h): 5 fold | concentration of EGF required for chemotaxis into the needles with inhibitor ([7]; GFP-control MTLn3 xenograft, 50 μM inhibitor, 25 nM without inhibitor): 5 nM | number of cells collected into needles ([7]; MTLn3 cells ectopically expressing Mena^INV, 50 μM inhibitor): had no effect | PI(4,5)P2 hydrolysis (PLCγ activity) [8]: increased PI(4,5)P2 hydrolysis | PI(4,5)P2 hydrolysis (PLCγ activity) ([8]; listed as PTP1bi): PLCγ activity is greater

Cc1[nH]c(/C=C2\C(=O)Nc3ccc(S(=O)(=O)N(C)c4cccc(Cl)c4)cc32)c(C)c1C(=O)N1CCN(C)CC1 [SU11274]
response of Mena^INV expressing cells in protrusion assay [9]: resistant | response of Mena^INV expressing cells, MET kinase activity [10]: resistant

From patent US10928397B2, “Methods involving MenaINV in screening for inhibitors of cancer invasion and metastasis” (MASSACHUSETTS INSTITUTE OF TECHNOLOGY, priority 2012, dated 2021)
